Read-outs that look alike come from different tables or passages of the source.
Columns and labels:
in vivo = details: mouse
mice = assay: acute toxicity in mice (LD50, os and i.p.)
beagle dogs [1] = assay: tolerability in male and female beagle dogs, oral bolus administration; details: 1.5 mg/kg/day
conscious SH rats [2] = assay: antihypertensive activity, oral, in conscious SH rats (mean blood pressure); assay type: in vivo; details: for duration of antihypertensive effect (in words): SH rats; for decrease of the mean blood pressure (--BP), maximum / antihypertensive activity: conscious SH rats, oral; for decrease of the mean blood pressure (--BP), maximum: 1.6 mg/kg
Experimental: The maximum hypotensive effect, proportional to the administered dose, takes place 5-7 hours after the administration and the blood pressure is maintained at the decreased level for further 4-5 hours, at least. […]
Dosages such as 0.2-0.4 mg/Kg are sufficient to stabilize gradually the mean B.P. to lower level for a 24 hrs period. The drop-out of the pharmacological treatment is not combined with an acute hypertensive rebound effect but in the following 2-3 days the mean blood pressure gradually rises to the initial values.

[3] = tested on: K^+ -depolarized rat aorta strips; assay: inhibition of contractile responses to increasing Ca++ concentration in K+ depolarized rat aorta strips
conscious SH rats [4] = details: in the same experimental models; cited from earlier work
beagle dogs [5] = details: dog, in vivo

## CCOC(=O)C1=C(C)NC(CSCCN)=C(C(=O)OCC)C1c1ccccc1C(F)(F)F (centres unmarked) [Compound 3]
In vivo; ip
  LD50: 5 mg/kg
In vivo; po
  LD50: 9 mg/kg

## CCOC(=O)C1=C(CSCCN)NC(C)=C(C(=O)OC(C)C)C1c1cccc([N+](=O)[O-])c1 (centres unmarked) [Compound 24]
In vivo; ip
  LD50: 25 mg/kg
In vivo; po
  LD50: 53 mg/kg

## CCOC(=O)C1=C(CSCC2CCCN2)NC(C)=C(C(=O)OC)C1c1cccc([N+](=O)[O-])c1 (centres unmarked) [Compound 16a]
mice; mouse, in vivo, ip
  LD50 in mice, i.p.: 7 mg/kg
mice; mouse, in vivo, po
  LD50 in mice, OS: 17 mg/kg

## CCOC(=O)C1=C(CSCCN)NC(C)=C(C(=O)OC)C1c1cccc([N+](=O)[O-])c1 (racemic) [Compound 11, 2-(2-aminoethylthio)methyl-3-ethoxycarbonyl-5-methoxycarbonyl-4-(m-nitrophenyl)-6-methyl-1,4-dihydropyridine]
Beagle dogs [1]
  death of dogs: died after three days treatment
Conscious SH rats [2]
  duration of antihypertensive effect (in words): long lasting effects
  decrease of the mean blood pressure (--BP), maximum: higher than 85 mmHg
In vivo; ip
  LD50: 22 mg/kg
In vivo; po
  LD50: 52 mg/kg

## CCOC(=O)C1=C(CSCCN)NC(C)=C(C#N)C1c1cccc([N+](=O)[O-])c1 (centres unmarked) [Compound 22]
In vivo; ip
  LD50: 82 mg/kg
In vivo; po
  LD50: 611 mg/kg

## CCCCNCCSCC1=C(C(=O)OCC)C(c2cccc([N+](=O)[O-])c2)C(C(=O)OC)=C(C)N1 (centres unmarked) [Compound 14]
In vivo; po
  LD50: 23 mg/kg
mice; mice, i.p.
  LD50 in mice, i.p.: 12 mg/kg

## COC(=O)C1=C(C)NC(C)=C(C(=O)OC)C1c1ccccc1[N+](=O)[O-] [nifedipine]
[3]
  dependence of inhibition on incubation time: not related to the incubation time

## CCOC(=O)C1=C(CSCC2CCCN2)NC(C)=C(C(=O)OC)C1c1cccc([N+](=O)[O-])c1 (centres unmarked) [Compound 16c]
mice; mouse, in vivo, ip
  LD50 in mice, i.p.: 27 mg/kg
mice; mouse, in vivo, po
  LD50 in mice, OS: 55 mg/kg

## CCOC(=O)C1=C(CSCCN)NC(C)=C([N+](=O)[O-])C1c1cccc([N+](=O)[O-])c1 (centres unmarked) [Compound 21]
In vivo; ip
  LD50: 108 mg/kg
In vivo; po
  LD50: 451 mg/kg

## CCOC(=O)C1=C(CSCC(C)N)NC(C)=C(C(=O)OC)C1c1cccc([N+](=O)[O-])c1 (centres unmarked) [Compound 30]
In vivo; ip
  LD50: 50 mg/kg
In vivo; po
  LD50: 42 mg/kg

## CCOC(=O)C1=C(CSCCN)NC(C)=C(C(=O)OC)C1c1ccccc1SC (centres unmarked) [Compound 8]
In vivo; ip
  LD50: 5 mg/kg
In vivo; po
  LD50: 8 mg/kg

## CCOC(=O)C1=C(CSCCN)NC(C)=C(C(=O)OCCN(C)Cc2ccccc2)C1c1cccc([N+](=O)[O-])c1 (centres unmarked) [Compound 23]
In vivo; ip
  LD50: 32 mg/kg
In vivo; po
  LD50: 91 mg/kg

## CCOC(=O)C1=C(C)NC(CSCCN)=C(C(=O)OCC)C1c1cccc([N+](=O)[O-])c1 (centres unmarked) [Compound 10]
Conscious SH rats [2]
  decrease of the mean blood pressure (--BP), maximum: higher than 85 mmHg
In vivo; ip
  LD50: 20 mg/kg
In vivo; po
  LD50: 21 mg/kg

## CCOC(=O)C1=C(CSCCN)NC(C)=C(C(=O)OC)C1c1cccc(OC)c1 (centres unmarked) [Compound 26]
In vivo; ip
  LD50: 59 mg/kg
In vivo; po
  LD50: 82 mg/kg

## CCOC(=O)C1=C(CSCC2CCCN2)NC(C)=C(C(=O)OC)C1c1cccc([N+](=O)[O-])c1 (centres unmarked) [Compound 16d]
Conscious SH rats [2]; 3.2 mg/kg
  antihypertensive activity: practically inactive
mice; mouse, in vivo, ip
  LD50 in mice, i.p.: 1000 mg/kg
mice; mouse, in vivo, po
  LD50 in mice, OS: 1000 mg/kg

## CCOC(=O)C1=C(C)NC(CSCCNCCC#N)=C(C(=O)OCC)C1c1cccc([N+](=O)[O-])c1 (centres unmarked) [Compound 19]
In vivo; ip
  LD50: 54 mg/kg
In vivo; po
  LD50: 95 mg/kg

## CCOC(=O)C1=C(CSCCN)NC(C)=C(C(=O)OC)C1c1ccccc1C(F)(F)F (centres unmarked) [Compound 2]
Conscious SH rats [2]
  decrease of the mean blood pressure (--BP), maximum: higher than 85 mmHg
In vivo; ip
  LD50: 2 mg/kg
In vivo; po
  LD50: 2 mg/kg

## CCCCNCCSCC1=C(C(=O)OCC)C(c2cccc([N+](=O)[O-])c2)C(C(=O)OC)=C(C)N1 (centres unmarked) [Compound 15]
Beagle dogs [1]
  death of dogs: died after three days treatment
mice; mice, i.p.
  LD50 in mice, i.p.: 39 mg/kg
mice; mice, oral (os)
  LD50 in mice, OS: 40 mg/kg

## CCOC(=O)C1=C(CSCC(N)CO)NC(C)=C(C(=O)OC)C1c1cccc([N+](=O)[O-])c1 (centres unmarked) [Compound 31]
In vivo; ip
  LD50: 87 mg/kg
In vivo; po
  LD50: 371 mg/kg

## COC(=O)C1=C(C)NC(CSCCN)=C(C(=O)OC)C1c1cccc([N+](=O)[O-])c1 (centres unmarked) [Compound 25]
In vivo; ip
  LD50: 25 mg/kg
In vivo; po
  LD50: 53 mg/kg

## CCOC(=O)C1=C(CSCCN)NC(C)=C(C(=O)OC)C1c1cccc(C(F)(F)F)c1 (centres unmarked) [Compound 9]
In vivo; ip
  LD50: 23 mg/kg
In vivo; po
  LD50: 40 mg/kg

## CCOC(=O)C1=C(CSCC(N)c2ccccc2)NC(C)=C(C(=O)OC)C1c1cccc([N+](=O)[O-])c1 (centres unmarked) [Compound 29]
In vivo; ip
  LD50: 46 mg/kg
In vivo; po
  LD50: 77 mg/kg

## CCOC(=O)C1=C(CSCC2CCCN2)NC(C)=C(C(=O)OC)C1c1cccc([N+](=O)[O-])c1 (centres unmarked) [Compound 16b]
mice; mouse, in vivo, ip
  LD50 in mice, i.p.: 25 mg/kg
mice; mouse, in vivo, po
  LD50 in mice, OS: 39 mg/kg

## CCOC(=O)C1=C(CSCCN)NC(C)=C(C(=O)OC)C1c1ccc(F)cc1 (centres unmarked) [Compound 27]
In vivo; ip
  LD50: 28 mg/kg
In vivo; po
  LD50: 46 mg/kg

## CCOC(=O)C1=C(CSCCN)NC(C)=C(C(=O)OC)C1c1cccc(C#N)c1 (centres unmarked) [Compound 28]
In vivo; ip
  LD50: 43 mg/kg
In vivo; po
  LD50: 34 mg/kg

## CCOC(=O)C1=C(CSCCN(C)C)NC(C)=C(C(=O)OC)C1c1cccc([N+](=O)[O-])c1 (centres unmarked) [Compound 12]
Conscious SH rats [2]
  decrease of the mean blood pressure (--BP), maximum: higher than 85 mmHg
In vivo; ip
  LD50: 25 mg/kg
In vivo; po
  LD50: 38 mg/kg

## CCOC(=O)C1=C(CSCCCN)NC(C)=C(C(=O)OC)C1c1cccc([N+](=O)[O-])c1 (centres unmarked) [Compound 17]
In vivo; ip
  LD50: 16 mg/kg
In vivo; po
  LD50: 22 mg/kg

## CCOC(=O)C1=C(CSCCN)NC(C)=C(C(=O)OC)C1c1cccc([N+](=O)[O-])c1 (centres unmarked) [Compound 13]
In vivo; ip
  LD50: 8 mg/kg
In vivo; po
  LD50: 21 mg/kg

## CCOC(=O)C1=C(C)NC(CSCC(N)C(=O)OCC)=C(C(=O)OCC)C1c1cccc([N+](=O)[O-])c1 (centres unmarked) [Compound 32]
In vivo; ip
  LD50: 354 mg/kg
In vivo; po
  LD50: 763 mg/kg

## CCOC(=O)C1=C(CSCCNCCC#N)NC(C)=C(C(=O)OC)C1c1cccc([N+](=O)[O-])c1 (centres unmarked) [Compound 20, 2-[2-[N-(2-cyanoethyl)aminoethyl]thio]methyl-3-ethoxycarbonyl-5-methoxycarbonyl-4-(m-nitrophenyl)-6-methyl-1,4-dihydropyridine]
In vivo; ip
  LD50: 35 mg/kg
In vivo; po
  LD50: 63 mg/kg

## NNc1nncc2ccccc12 [hydralazine]
Conscious SH rats [4]
  reflex tachicardia (other antihypertensive agents): often observed

## CCOC(=O)C1=C(CSCCN)NC(C)=C(C(=O)OC)C1c1ccccc1Cl (centres unmarked) [Compound 6, 2-(2-aminoethylthio)methyl-3-ethoxycarbonyl-5-methoxycarbonyl-4-(2-chlorophenyl)-6-methyl-1,4-dihydropyridine]
Conscious SH rats [2]
  decrease of the mean blood pressure (--BP), maximum: higher than 85 mmHg
In vivo; ip
  LD50: 4 mg/kg
In vivo; po
  LD50: 5 mg/kg

## CCOC(=O)C1=C(C)NC(CSCCN)=C(C(=O)OCC)C1c1ccccc1Cl (centres unmarked) [Compound 5]
Conscious SH rats [2]
  decrease of the mean blood pressure (--BP), maximum: higher than 85 mmHg
In vivo; ip
  LD50: 9 mg/kg
In vivo; po
  LD50: 12 mg/kg

## CCOC(=O)C1=C(CSCCNC=O)NC(C)=C(C(=O)OC)C1c1ccccc1SC (centres unmarked) [N-formylation of compound 8]
In vivo; po
  LD50: 90 mg/kg

## CCOC(=O)C1=C(CSCCN)NC(C)=C(C(=O)OC)C1c1ccccc1 (centres unmarked) [Compound 1]
In vivo; ip
  LD50: 31 mg/kg
In vivo; po
  LD50: 33 mg/kg

## CCOC(=O)C1=C(CSCCN)NC(C)=C(C(=O)OC)C1c1ccccc1[N+](=O)[O-] (centres unmarked) [Compound 4]
In vivo; ip
  LD50: 2 mg/kg
In vivo; po
  LD50: 3 mg/kg

## CCOC(=O)C1=C(CSCCNC=O)NC(C)=C(C(=O)OC)C1c1cccc([N+](=O)[O-])c1 (centres unmarked) [Example 3, 2-(2-formylaminoethylthio)-methyl-3-ethoxycarbonyl-5-methoxycarbonyl-4-(m-nitrophenyl)-6-methyl-1.4-dihydropyridine]
Beagle dogs [5]
  death of dogs: do not die after two weeks treatment
  tolerability in dogs: high tolerability
Conscious SH rats [2]
  duration of antihypertensive effect (in words): long lasting effects
Conscious SH rats [2]; once daily, very low doses (for ex. 0.2 mg/kg/os)
  antihypertensive activity: pronounced and long lasting antihypertensive activity
In vivo; ip
  LD50: 150 mg/kg
In vivo; po
  LD50: 200 mg/kg
mice; mice where stated
  acute toxicity (in words): low oral acute toxicity

## CCOC(=O)C1=C(CSCCCCN)NC(C)=C(C(=O)OC)C1c1cccc([N+](=O)[O-])c1 (centres unmarked) [Compound 18]
In vivo; ip
  LD50: 4 mg/kg
In vivo; po
  LD50: 11 mg/kg

## CCOC(=O)C1=C(CSCCNC(C)=O)NC(C)=C(C(=O)OC)C1c1cccc([N+](=O)[O-])c1 (racemic) [rac 2-acetylamino ethyl-thio-methyl, reference compound]
Conscious SH rats [2]
  duration of antihypertensive effect (in words): shorter lasting antihypertensive effect

## CCOC(=O)C1=C(CSCCN)NC(C)=C(C(=O)OC)C1c1cccc(Cl)c1 (centres unmarked) [Compound 7]
Conscious SH rats [2]
  decrease of the mean blood pressure (--BP), maximum: higher than 85 mmHg
In vivo; ip
  LD50: 23 mg/kg
In vivo; po
  LD50: 40 mg/kg

Reference: US5047414A, “2-(aminoalkylthio)methyl-1,4-dihydropyridine, a method for the preparation thereof and pharmaceutical compositions containing them” (Boehringer Biochemia Robin S.p.A., priority 1986, dated 1991)
